Assay results reported in patent US3935229A, “Esters of 2-[(4-quinolyl)amino]-benzoic acids” (Synthelabo, priority 1973, dated 1976).

What was measured:
[1] = system: pain induced, in Swiss mice, by the intraperitoneal injection of phenylquinone; test: Siegmund test (analgesic effect against pain induced by intraperitoneal phenylquinone); format: in vivo; settings: mice; for ED50: Mus musculus, read-out: Siegmund test AD50 (50% active dose); for analgesic effects of the peripheral type (Siegmund test), compared with amidopyrine and glafenine: oral, versus amidopyrine and glafenine
Excerpt: 1. Effect against pain induced, in Swiss mice, by the intraperitoneal injection of phenylquinone, in accordance with the experimental procedure of Siegmund (Proc. Soc. Exp. Biol. Med., 1957, 95, 729), modified by Cheymol (C.R. Soc. Biol., 1963, 157, 521) and Brittain (Nature, London, 1963, […], 895).

[2] = system: carragenine-induced oedema of the paw, Sherman rats; test: Carragenine-induced oedema test (oedema of the paw); format: in vivo; settings: Rattus norvegicus; rats, oral administration; read-out: Carragenine-induced oedema test AD (AD40 = 40% active dose)
in vivo = settings: mouse, in vivo, po
Protocol: (§1) Tests were carried out on mice of both sexes, of the Swiss strain, of average weight 20 g. (± 2g.).

[3] = system: mice of both sexes, of the Swiss strain; test: in vivo; settings: mice, oral administration
Protocol: as §1

[4] = system: heated plate test, Swiss mice; test: Heated plate test (plate heated by acetone vapours; analgesic effects of the central type); settings: oral, versus amidopyrine

Cc1c(N(C)C)c(=O)n(-c2ccccc2)n1C [Amidopyrine, reference compound]
ED50 ([1]; oral administration): 50 mg/kg | ED40 [2]: 80 mg/kg | LD50 (in vivo; Acute toxicity LD50 (50% lethal dose), mice, oral administration): 850 mg/kg

O=C(OCCN1CCN(c2ccc(Cl)cc2)CC1)c1ccccc1Nc1ccnc2cc(Cl)ccc12 [Compound 72-165, 2-(4'-p-Chlorophenyl-piperazino)-ethyl 2-(7'-chloro-4' quinolyl-amino)-benzoate]
ED50 ([1]; oral administration): 50 mg/kg | LD50 (in vivo): > 2000 mg/kg

O=C(OCCN1CCN(c2ccccc2)CC1)c1ccccc1Nc1ccnc2cc(C(F)(F)F)ccc12 [Compound 72-242, 2-(4'-Phenyl-piperazino)-ethyl 2-(7'-trifluoro-methyl-4'quinolyl-amino)-benzoate]
ED50 ([1]; oral administration): 25 mg/kg | analgesic effects of the peripheral type (Siegmund test), compared with amidopyrine and glafenine [1]: generally much more active | ED40 [2]: 40 mg/kg | LD50 (in vivo): > 3000 mg/kg

O=C(OCCN1CCN(c2ccccc2)CC1)c1ccccc1Nc1ccnc2cc(SC(F)(F)F)ccc12 [Compound 72-244, 2-(4'-Phenyl-piperazino)-ethyl 2-(7'-trifluoromethylthio-4'-quinolyl-amino)-benzoate]
ED50 ([1]; oral administration): 10 mg/kg | analgesic effects of the peripheral type (Siegmund test), compared with amidopyrine and glafenine [1]: generally much more active | Acute toxicity LD50 (50% lethal dose) [3]: 1,200 mg/kg

Cc1cccc(N2CCN(CCOC(=O)c3ccccc3Nc3ccnc4cc(Cl)ccc34)CC2)c1C [Compound 72-248, 2-[4'-(2",3"-Dimethyl-phenyl)-piperazino]-ethyl 2-(7'-chloro-4'-quinolyl-amino)-benzoate]
ED50 ([1]; oral administration): 20 mg/kg | analgesic effects of the peripheral type (Siegmund test), compared with amidopyrine and glafenine [1]: generally much more active | ED40 [2]: 120 mg/kg | LD50 (in vivo): 1900 mg/kg

O=C(OCCN1CCN(c2cccc(C(F)(F)F)c2)CC1)c1ccccc1Nc1ccnc2cc(Cl)ccc12 [Compound 72-391, 2-(4'-m-Trifluoromethylphenyl-piperazino)-ethyl 2-(7'-chloro-4'-quinolyl-amino)-benzoate]
ED50 ([1]; oral administration): 20 mg/kg | analgesic effects of the peripheral type (Siegmund test), compared with amidopyrine and glafenine [1]: generally much more active | analgesic effects of the central type (heated plate test), compared with amidopyrine [4]: greater than that of amidopyrine | ED40 [2]: 40 mg/kg | Acute toxicity LD50 (50% lethal dose) [3]: 2,500 mg/kg

O=C(OCCN1CCN(c2cccc(Cl)c2)CC1)c1ccccc1Nc1ccnc2cc(Cl)ccc12 [Compound 73-018, 2-(4'-m-Chlorophenyl-piperazino)-ethyl 2-(7'-chloro-4'-quinolyl-amino)-benzoate]
ED50 ([1]; oral administration): 6 mg/kg | analgesic effects of the peripheral type (Siegmund test), compared with amidopyrine and glafenine [1]: generally much more active | analgesic effects of the central type (heated plate test), compared with amidopyrine [4]: greater than that of amidopyrine | extent of the greater activity than amidopyrine in the heated plate test [4]: considerable | ED40 [2]: 120 mg/kg | LD50 (in vivo): 4000 mg/kg

O=C(OCCN1CCN(c2cccc(OC(F)(F)F)c2)CC1)c1ccccc1Nc1ccnc2cc(Cl)ccc12 [Compound 73-030, 2-(4'-m-Trifluoromethoxyphenyl-piperazino)-ethyl 2-(7'-chloro-4'-quinolyl-amino)-benzoate]
ED50 ([1]; oral administration): 100 mg/kg | ED40 [2]: 50 mg/kg | LD50 (in vivo): > 4000 mg/kg

O=C(OCCN1CCN(c2cccc(SC(F)(F)F)c2)CC1)c1ccccc1Nc1ccnc2cc(Cl)ccc12 [Compound 73-031, 2-(4'-m-Trifluoromethylthiophenyl-piperazino)-ethyl 2-(7'-chloro-4'-quinolyl-amino)-benzoate]
ED50 ([1]; oral administration): 100 mg/kg | ED40 [2]: 30 mg/kg | LD50 (in vivo): 3000 mg/kg

O=C(OCCN1CCN(c2cccc(C(F)(F)F)c2)CC1)c1ccccc1Nc1ccnc2cc(C(F)(F)F)ccc12 [Compound 73-033, 2-(4'-m-Trifluoromethylphenyl-piperazino)-ethyl 2-(7'-trifluoromethyl-4'-quinolyl-amino)-benzoate]
Siegmund test AD50 (50% active dose) ([1]; oral administration): 5 mg/kg | Acute toxicity LD50 (50% lethal dose) [3]: 4,000 mg/kg

O=C(OCCN1CCN(c2cccc(Cl)c2)CC1)c1ccccc1Nc1ccnc2cc(C(F)(F)F)ccc12 [Compound 73-045, 2-(4'-m-Chlorophenyl-piperazino)-ethyl 2-(7'-trifluromethyl-4'-quinolyl-amino)-benzoate]
ED50 ([1]; oral administration): 8 mg/kg | analgesic effects of the peripheral type (Siegmund test), compared with amidopyrine and glafenine [1]: generally much more active | analgesic effects of the central type (heated plate test), compared with amidopyrine [4]: greater than that of amidopyrine | ED40 [2]: 30 mg/kg | LD50 (in vivo): > 4000 mg/kg

Cc1c(Cl)cccc1N1CCN(CCOC(=O)c2ccccc2Nc2ccnc3cc(Cl)ccc23)CC1 [Compound 73-046, 2-[4'-(3"-Chloro-2"-methyl-phenyl)-piperazino]-ethyl 2-(7'-chloro-4'-quinolyl-amino)-benzoate]
ED50 ([1]; oral administration): 13 mg/kg | analgesic effects of the peripheral type (Siegmund test), compared with amidopyrine and glafenine [1]: generally much more active | ED40 [2]: 30 mg/kg | LD50 (in vivo): > 2000 mg/kg

Cc1c(Cl)cccc1N1CCN(CCOC(=O)c2ccccc2Nc2ccnc3cc(C(F)(F)F)ccc23)CC1 [Compound 73-047, 2-[4'-(3"-Chloro-2"-methyl-phenyl)-piperazino]-ethyl 2-(7'-trifluoromethyl-4'-quinolyl-amino)-benzoate]
ED50 ([1]; oral administration): 16 mg/kg | analgesic effects of the peripheral type (Siegmund test), compared with amidopyrine and glafenine [1]: generally much more active | ED40 [2]: 65 mg/kg | LD50 (in vivo): 3000 mg/kg

O=C(OCCN1CCN(c2cccc(SC(F)(F)F)c2)CC1)c1ccccc1Nc1ccnc2cc(C(F)(F)F)ccc12 [Compound 73-048, 2-(4'-m-Trifluoromethylthiophenyl-piperazino)-ethyl 2-(7'-trifluoromethyl-4'-quinolyl-amino)-benzoate]
ED50 ([1]; oral administration): 6 mg/kg | analgesic effects of the peripheral type (Siegmund test), compared with amidopyrine and glafenine [1]: generally much more active | ED40 [2]: 30 mg/kg | LD50 (in vivo): 4000 mg/kg

O=C(OCCN1CCN(c2cccc(OC(F)(F)F)c2)CC1)c1ccccc1Nc1ccnc2cc(C(F)(F)F)ccc12 [Compound 73-051, 2-(4'-m-trifluoromethoxyphenyl-piperazino)-ethyl 2-(7'-trifluoromethyl-4'-quinolyl-amino)-benzoate]
ED50 ([1]; oral administration): 16 mg/kg | analgesic effects of the peripheral type (Siegmund test), compared with amidopyrine and glafenine [1]: generally much more active | ED40 [2]: 50 mg/kg | LD50 (in vivo): > 4000 mg/kg

O=C(OCCN1CCN(c2cccc(SC(F)(F)F)c2)CC1)c1ccccc1Nc1ccnc2cc(SC(F)(F)F)ccc12 [Compound 73-069, 2-(4'-m-Trifluoromethylthiophenyl-piperazino)-ethyl 2-(7'-trifluoromethylthio-4'-quinolyl-amino)-benzoate]
ED50 ([1]; oral administration): 50 mg/kg | ED40 [2]: 55 mg/kg | Acute toxicity LD50 (50% lethal dose) [3]: 2,200 mg/kg

O=C(OCCN1CCN(c2cc(C(F)(F)F)cc(C(F)(F)F)c2)CC1)c1ccccc1Nc1ccnc2cc(C(F)(F)F)ccc12 [Compound 73-070, 2-[4'-(3",5"-Di-trifluoromethyl-phenyl)-piperazino]-ethyl 2-(7'-trifluoromethyl-4'-quinolyl-amino)-benzoate]
ED50 ([1]; oral administration): 16 mg/kg | ED40 [2]: > 80 mg/kg | LD50 (in vivo): > 4000 mg/kg

CCCCC1C(=O)N(c2ccccc2)N(c2ccccc2)C1=O [Phenylbutazone, reference compound]
ED50 ([1]; oral administration): 90 mg/kg | ED40 [2]: 30 mg/kg

O=C(OCCN1CCN(c2cccc(C(F)(F)F)c2)CC1)c1ccccc1Nc1ccnc2c(C(F)(F)F)cccc12 [SLB 179, 2-(4'-m-Trifluoromethylphenyl-piperazino)-ethyl 2-(8'-trifluoromethyl-4'-quinolyl-amino)-benzoate]
ED50 ([1]; oral administration): 25 mg/kg | analgesic effects of the peripheral type (Siegmund test), compared with amidopyrine and glafenine [1]: generally much more active | analgesic effects of the central type (heated plate test), compared with amidopyrine [4]: greater than that of amidopyrine | ED40 [2]: 120 mg/kg | LD50 (in vivo): > 3000 mg/kg

O=C(OCCN1CCN(c2cccc(Cl)c2)CC1)c1ccccc1Nc1ccnc2c(C(F)(F)F)cccc12 [SLB 180, 2-(4'-m-Chlorophenyl-piperazino)-ethyl 2-(8'-trifluoromethyl-4'-quinolyl-amino)-benzoate]
ED50 ([1]; oral administration): 12 mg/kg | analgesic effects of the peripheral type (Siegmund test), compared with amidopyrine and glafenine [1]: generally much more active | ED40 [2]: > 100 mg/kg | LD50 (in vivo): > 3000 mg/kg

O=C(OCCN1CCN(c2ccccc2)CC1)c1ccccc1Nc1ccnc2c(C(F)(F)F)cccc12 [SLB 181, 2-(4'-Phenyl-piperazino)-ethyl 2-(8'-trifluoromethyl-4'-quinolyl-amino)-benzoate]
ED50 ([1]; oral administration): 12 mg/kg | analgesic effects of the peripheral type (Siegmund test), compared with amidopyrine and glafenine [1]: generally much more active | ED40 [2]: 45 mg/kg | LD50 (in vivo): 2000 mg/kg

O=C(OCCN1CCN(c2cccc(SC(F)(F)F)c2)CC1)c1ccccc1Nc1ccnc2c(C(F)(F)F)cccc12 [SLB 182, 2-(4'-m-Trifluoromethylthiophenyl-piperazino)-ethyl 2-(8'-trifluoromethyl-4'-quinolyl-amino)-benzoate]
ED50 ([1]; oral administration): 5 mg/kg | analgesic effects of the peripheral type (Siegmund test), compared with amidopyrine and glafenine [1]: generally much more active | ED40 [2]: 150 mg/kg | LD50 (in vivo): > 3000 mg/kg
